In US20240350522A1, “HYGROMYCIN A FOR TREATMENT OF DISEASES AND INFECTIONS” (FLIGHTPATH BIOSCIENCES, INC., priority 2021, published 2024):
Values joined by “and” are separate entries in the source; they are usually repeats but may differ in a detail not shown here. Identical values can stand only once. Like-named read-outs stand apart in the source and are kept apart here.

How the values were obtained:
F. nucleatum animalis = assay: Kirby-Bauer diffusion assay; format: cell-based, Fusobacterium nucleatum; conditions: for zone of inhibition at 20 µg/disc / zone of inhibition at 40 µg/disc / zone of inhibition at 5 µg/disc / zone of inhibition at 10 µg/disc: Fusobacterium nucleatum, mean (SEM), read-out: size of zone inhibition (mm); for zone of inhibition at 20 µg/disc: Hyg A 20 μg per disc; for zone of inhibition at 40 µg/disc: Hyg A 40 μg per disc; for zone of inhibition at 5 µg/disc: Hyg A 5 μg per disc; for zone of inhibition at 10 µg/disc: Hyg A 10 μg per disc
Experimental: (§1) Three representatives of 6 subspecies of Fusobacterium nucleatum (F. nucleatum) for a total of 18 strains were tested in the experiment. The sub species and strains are described in Table 2.
(§2) All strains were verified by 16S V3/V6 sequence analysis prior to use. The methods described herein were performed in an anaerobic chamber at 37° C. All media and plates were degassed prior to use.
(§3) Hygromycin A (Hyg A) discs were prepared by solubilizing Hyg A in distilled water and sterile filtered. Clindamycin was used as a positive control. Defined amounts of hygromycin A (40, 20, 10 or 5 micrograms), clindamycin (2 micrograms) or sterile distilled water were absorbed onto Kirby-Bauer discs in a biosafety cabinet.
(§4) An overnight culture was grown in Wilkins-Chalgren (WC) broth and back-diluted 1:10 in fresh broth. When an OD 600 reading reached 0.5, 300 μL of the log phase culture was plated onto WC agar plates. The plates were sectioned into quadrants and a Kirby-Bauer (KB) disc impregnated with a defined amount of hygromycin A was placed in each quadrant. Plates were prepared thus in triplicate and the four amounts of hygromycin A were 40, 20 10 and 5 micrograms. The same volume of culture was spread on fourth plate sectioned into six sections for three positive and three negative controls. KB discs with water served as negative controls and KB discs impregnated with 2 micrograms of clindamycin served as positive controls. […] Table 3, Table 4, Table 5, Table 6, Table 7, Table 8 show the mean size of zone inhibitions for each of the subspecies tested using increasing concentrations of hygromycin A where the standard error of mean is represented in parenthesis.
(§5) The amount of hygromycin A was plotted against the size of the zone of inhibition for each strain tested.

F. nucleatum vincentii = assay: Kirby-Bauer diffusion assay; format: cell-based, Fusobacterium nucleatum; conditions: for zone of inhibition at 5 µg/disc / zone of inhibition at 10 µg/disc / zone of inhibition at 20 µg/disc / zone of inhibition at 40 µg/disc: Fusobacterium nucleatum, mean (SEM), read-out: size of zone inhibition (mm); for zone of inhibition at 5 µg/disc: Hyg A 5 μg per disc; for zone of inhibition at 10 µg/disc: Hyg A 10 μg per disc; for zone of inhibition at 20 µg/disc: Hyg A 20 μg per disc; for zone of inhibition at 40 µg/disc: Hyg A 40 μg per disc
Experimental: as §1, §2, §3, §4, §5

[1] = tested on: Treponema pallidum pallidum SS14 strain; assay: Treated treponemes seeded onto no-antibiotic plate, 7 more days, T47 qPCR (treponemicidal activity); format: cell-based; conditions: for Mean T47 copies/μL, Avg. / Mean T47 copies/μL, Expt. values: seeded on no antibiotic plate; for Mean T47 copies/μL, Avg.: average; for Mean T47 copies/μL, Expt. values: replicate wells
SF1Ep cells = assay: Cytotoxicity assay, Cell Proliferation Reagent WST-1; format: cell-based, rabbit; conditions: day 7; any concentration tested (0.03-3.84 μg/mL)
Experimental: Cytotoxicity assay was performed according to the Cell Proliferation Reagent WST-1 protocol (Attached; Roche, Basel, Switzerland). Absorbance was measured after 1 hour incubation with the reagent.

[2] = pre-treated with Hygromycin A 0.03 μg/ml
[3] = pre-treated with Hygromycin A 0.06 μg/ml
[4] = pre-treated with Hygromycin A 0.12 μg/ml
[5] = pre-treated with Hygromycin A 0.24 μg/ml
[6] = pre-treated with Hygromycin A 0.48 μg/ml
[7] = pre-treated with Hygromycin A 0.96 μg/ml
[8] = pre-treated with Hygromycin A 1.92 μg/ml
[9] = pre-treated with Hygromycin A 3.84 μg/ml

CC(=O)[C@H]1O[C@@H](Oc2ccc(/C=C(\C)C(=O)N[C@@H]3[C@H](O)[C@@H](O)[C@H]4OCO[C@H]4[C@@H]3O)cc2O)[C@@H](O)[C@@H]1O [Hyg A, Hygromycin A]
zone of inhibition at 20 µg/disc (F. nucleatum animalis; strain 7_1): 22.7 mm
zone of inhibition at 40 µg/disc (F. nucleatum animalis; strain 7_1): 24.3 mm
zone of inhibition at 5 µg/disc (F. nucleatum animalis; strain 218A8): 19.7 mm
zone of inhibition at 10 µg/disc (F. nucleatum animalis; strain 218A8): 21.7 mm
zone of inhibition at 20 µg/disc (F. nucleatum animalis; strain 218A8): 29.7 mm
zone of inhibition at 40 µg/disc (F. nucleatum animalis; strain 218A8, 42 mm = assigned maximum): 42 mm
zone of inhibition at 5 µg/disc (F. nucleatum animalis; strain CRC 7_3 JVN3C1): 0 mm
zone of inhibition at 10 µg/disc (F. nucleatum animalis; strain CRC 7_3 JVN3C1): 0 mm
zone of inhibition at 20 µg/disc (F. nucleatum animalis; strain CRC 7_3 JVN3C1): 0 mm
zone of inhibition at 40 µg/disc (F. nucleatum animalis; strain CRC 7_3 JVN3C1): 0 mm
strain sensitivity in words (F. nucleatum animalis; strain CRC 7_3JVN3C1, 5-40 μg discs): fully resistant
zone of inhibition at 5 µg/disc (F. nucleatum vincentii; strain 3/1/36A2): 19 mm
zone of inhibition at 10 µg/disc (F. nucleatum vincentii; strain 3/1/36A2): 21.3 mm
zone of inhibition at 20 µg/disc (F. nucleatum vincentii; strain 3/1/36A2): 24.7 mm
zone of inhibition at 40 µg/disc (F. nucleatum vincentii; strain 3/1/36A2): 27.7 mm
zone of inhibition at 5 µg/disc (F. nucleatum vincentii; strain 215A9): 0 mm
zone of inhibition at 10 µg/disc (F. nucleatum vincentii; strain 215A9): 0 mm
zone of inhibition at 20 µg/disc (F. nucleatum vincentii; strain 215A9): 0 mm
zone of inhibition at 40 µg/disc (F. nucleatum vincentii; strain 215A9): 0 mm
zone of inhibition at 5 µg/disc (F. nucleatum vincentii; strain CC53): 16.3 mm
zone of inhibition at 10 µg/disc (F. nucleatum vincentii; strain CC53): 21.3 mm
zone of inhibition at 20 µg/disc (F. nucleatum vincentii; strain CC53): 24 mm
zone of inhibition at 40 µg/disc (F. nucleatum vincentii; strain CC53): 27.3 mm
strain sensitivity in words (F. nucleatum vincentii; strain 215A9, 5-40 μg discs): fully resistant
concentration with treponemicidal activity ([1]; SS14 strain seeded onto no-antibiotic control plate): ≥ 0.12 µg/mL
Mean T47 copies/μL, Avg. [1, 2]: 2232 copies/μL
Mean T47 copies/μL, Expt. values [1, 2]: 1649 copies/μL and 3690 copies/μL and 3831 copies/μL and 2114 copies/μL and 445 copies/μL and 1541 copies/μL and 2079 copies/μL and 2511 copies/μL
Mean T47 copies/μL, Avg. [1, 3]: 199 copies/μL
Mean T47 copies/μL, Expt. values [1, 3]: 137 copies/μL and 310 copies/μL and 274 copies/μL and 99 copies/μL and 71 copies/μL and 159 copies/μL and 200 copies/μL and 343 copies/μL
Mean T47 copies/μL, Avg. [1, 4]: 20 copies/μL
Mean T47 copies/μL, Expt. values [1, 4]: 17 copies/μL and 14 copies/μL and 45 copies/μL and 0 copies/μL and 22 copies/μL and 25 copies/μL and 15 copies/μL and 24 copies/μL
Mean T47 copies/μL, Avg. [1, 5]: 13 copies/μL
Mean T47 copies/μL, Expt. values [1, 5]: 35 copies/μL and 16 copies/μL (2×) and 6 copies/μL and 5 copies/μL and 21 copies/μL and 7 copies/μL and 0 copies/μL
Mean T47 copies/μL, Avg. [1, 6]: 9 copies/μL
Mean T47 copies/μL, Expt. values [1, 6]: 2 copies/μL and 0 copies/μL (2×) and 16 copies/μL and 10 copies/μL and 31 copies/μL and 5 copies/μL and 6 copies/μL
Mean T47 copies/μL, Avg. [1, 7]: 7 copies/μL
Mean T47 copies/μL, Expt. values [1, 7]: 8 copies/μL and 11 copies/μL and 0 copies/μL (2×) and 3 copies/μL (2×) and 16 copies/μL and 13 copies/μL
Mean T47 copies/μL, Avg. [1, 8]: 13 copies/μL
Mean T47 copies/μL, Expt. values [1, 8]: 5 copies/μL (2×) and 7 copies/μL and 17 copies/μL and 19 copies/μL (2×) and 8 copies/μL and 22 copies/μL
Mean T47 copies/μL, Avg. [1, 9]: 19 copies/μL
Mean T47 copies/μL, Expt. values [1, 9]: 19 copies/μL and 25 copies/μL and 21 copies/μL (2×) and 18 copies/μL and 7 copies/μL and 15 copies/μL and 22 copies/μL
toxicity to SF1Ep cells (WST-1) (SF1Ep cells): not toxic
